In patent publication US12077503B2, “Substituted cyclic amides and their use as herbicides” (FMC CORPORATION, priority 2015, dated 2024):

Experiments:
Type in all cases: in vivo
[1] = test system: ivy-leaved morning glory (Ipomoea hederacea); experiment: Test G Post-Emergence Protocol; conditions: Ipomoea, post-emergence, 312 h; for pest or weed control at 15.625 g/ha: 15.625 g ai/ha, evaluated after 13 days (100=total damage to plant; 0=no damage to plant), read-out: Morningglory, Ivy-leaved damage rating; for pest or weed control at 62.5 g/ha: 62.5 g ai/ha, read-out: Morningglory, Ivy-leaved damage rating (100=total damage to plant; 0=no damage to plant); for pest or weed control at 62.5 g/ha / pest or weed control at 250 g/ha: evaluated after 13 days; for pest or weed control at 250 g/ha: 250 g ai/ha, read-out: damage to plant, Morningglory, Ivy-leaved (100=total damage to plant; 0=no damage to plant)
Method in brief: (§1)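 Scores run 0 (no damage) to 100 (total damage) and were taken 13 days after spraying. Plants had been raised in pots for 8 days under glasshouse control (24/16 °C, 14 h photoperiod, 65% humidity) and then treated at 15.625, 62.5 or 250 g/ha.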

[2] = test system: corn (Zea mays); experiment: Test G Post-Emergence Protocol; conditions: Zea mays, post-emergence, 312 h; for plant injury at 15.625 g/ha: 15.625 g ai/ha, evaluated after 13 days (100=total damage to plant; 0=no damage to plant), read-out: Corn damage rating; for plant injury at 62.5 g/ha: 62.5 g ai/ha, read-out: Corn damage rating (100=total damage to plant; 0=no damage to plant); for plant injury at 62.5 g/ha / plant injury at 250 g/ha: evaluated after 13 days; for plant injury at 250 g/ha: 250 g ai/ha, read-out: damage to plant, Corn (100=total damage to plant; 0=no damage to plant)
Method in brief: as §1

[3] = test system: redroot pigweed (Amaranthus retroflexus); experiment: Test G Post-Emergence Protocol; conditions: Amaranthus retroflexus, post-emergence, 312 h; for pest or weed control at 15.625 g/ha: 15.625 g ai/ha, evaluated after 13 days (100=total damage to plant; 0=no damage to plant), read-out: Pigweed, Redroot damage rating; for pest or weed control at 62.5 g/ha: 62.5 g ai/ha, read-out: Pigweed, Redroot damage rating (100=total damage to plant; 0=no damage to plant); for pest or weed control at 62.5 g/ha / pest or weed control at 250 g/ha: evaluated after 13 days; for pest or weed control at 250 g/ha: 250 g ai/ha, read-out: damage to plant, Pigweed, Redroot (100=total damage to plant; 0=no damage to plant)
Method in brief: as §1

[4] = test system: velvetleaf (Abutilon theophrasti); experiment: Test G Post-Emergence Protocol; conditions: Abutilon theophrasti, post-emergence, 312 h; for pest or weed control at 15.625 g/ha: 15.625 g ai/ha, evaluated after 13 days (100=total damage to plant; 0=no damage to plant), read-out: Velvetleaf damage rating; for pest or weed control at 62.5 g/ha: 62.5 g ai/ha, read-out: Velvetleaf damage rating (100=total damage to plant; 0=no damage to plant); for pest or weed control at 62.5 g/ha / pest or weed control at 250 g/ha: evaluated after 13 days; for pest or weed control at 250 g/ha: 250 g ai/ha, read-out: damage to plant, Velvetleaf (100=total damage to plant; 0=no damage to plant)
Method in brief: as §1

[5] = test system: giant foxtail (Setaria faberi); experiment: Test G Post-Emergence Protocol; conditions: Setaria faberi, post-emergence, 312 h; for pest or weed control at 15.625 g/ha: 15.625 g ai/ha, evaluated after 13 days (100=total damage to plant; 0=no damage to plant), read-out: Foxtail, Giant damage rating; for pest or weed control at 62.5 g/ha: 62.5 g ai/ha, read-out: Foxtail, Giant damage rating (100=total damage to plant; 0=no damage to plant); for pest or weed control at 62.5 g/ha / pest or weed control at 250 g/ha: evaluated after 13 days; for pest or weed control at 250 g/ha: 250 g ai/ha, read-out: damage to plant, Foxtail, Giant (100=total damage to plant; 0=no damage to plant)
Method in brief: as §1

[6] = test system: barnyardgrass (Echinochloa crus-galli); experiment: Test G Post-Emergence Protocol; conditions: Echinochloa crus-galli, post-emergence, 312 h; for pest or weed control at 15.625 g/ha: 15.625 g ai/ha, evaluated after 13 days (100=total damage to plant; 0=no damage to plant), read-out: Barnyardgrass damage rating; for pest or weed control at 62.5 g/ha: 62.5 g ai/ha, read-out: Barnyardgrass damage rating (100=total damage to plant; 0=no damage to plant); for pest or weed control at 62.5 g/ha / pest or weed control at 250 g/ha: evaluated after 13 days; for pest or weed control at 250 g/ha: 250 g ai/ha, read-out: damage to plant, Barnyardgrass (100=total damage to plant; 0=no damage to plant)
Method in brief: as §1

[7] = test system: ivy-leaved morning glory (Ipomoea hederacea); experiment: Test G Pre-Emergence Protocol; conditions: Ipomoea, pre-emergence, 312 h, evaluated after 13 days; for pest or weed control at 15.625 g/ha: 15.625 g ai/ha, read-out: Morning-glory, Ivy-leaved damage rating (100=total damage to plant; 0=no damage to plant); for pest or weed control at 62.5 g/ha: 62.5 g ai/ha, 100=total damage to plant, 0=no damage to plant, read-out: plant damage rating, Morningglory, Ivy-leaved; for pest or weed control at 250 g/ha: 250 g ai/ha, read-out: Morningglory, Ivy-leaved damage rating (100=total damage to plant; 0=no damage to plant)
Method in brief: (§2)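 Glasshouse pre-emergence test: soil-sown seeds, sprayed after 1 d at 15.625, 62.5 or 250 g/ha. Conditions 24/16° C day/night, 14 h light, 65% humidity, watering twice daily. Rating 13 d post-spray (100 = total damage).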

[8] = test system: corn (Zea mays); experiment: Test G Pre-Emergence Protocol; conditions: Zea mays, pre-emergence, 312 h, evaluated after 13 days; for plant injury at 15.625 g/ha: 15.625 g ai/ha; for plant injury at 15.625 g/ha / plant injury at 250 g/ha: read-out: Corn damage rating (100=total damage to plant; 0=no damage to plant); for plant injury at 62.5 g/ha: 62.5 g ai/ha, 100=total damage to plant, 0=no damage to plant, read-out: plant damage rating, Corn; for plant injury at 250 g/ha: 250 g ai/ha
Method in brief: as §2

[9] = test system: redroot pigweed (Amaranthus retroflexus); experiment: Test G Pre-Emergence Protocol; conditions: Amaranthus retroflexus, pre-emergence, 312 h, evaluated after 13 days; for pest or weed control at 15.625 g/ha: 15.625 g ai/ha; for pest or weed control at 15.625 g/ha / pest or weed control at 250 g/ha: read-out: Pigweed, Redroot damage rating (100=total damage to plant; 0=no damage to plant); for pest or weed control at 62.5 g/ha: 62.5 g ai/ha, 100=total damage to plant, 0=no damage to plant, read-out: plant damage rating, Pigweed, Redroot; for pest or weed control at 250 g/ha: 250 g ai/ha
Method in brief: as §2

[10] = test system: velvetleaf (Abutilon theophrasti); experiment: Test G Pre-Emergence Protocol; conditions: Abutilon theophrasti, pre-emergence, 312 h, evaluated after 13 days; for pest or weed control at 15.625 g/ha: 15.625 g ai/ha; for pest or weed control at 15.625 g/ha / pest or weed control at 250 g/ha: read-out: Velvetleaf damage rating (100=total damage to plant; 0=no damage to plant); for pest or weed control at 62.5 g/ha: 62.5 g ai/ha, 100=total damage to plant, 0=no damage to plant, read-out: plant damage rating, Velvetleaf; for pest or weed control at 250 g/ha: 250 g ai/ha
Method in brief: as §2

[11] = test system: giant foxtail (Setaria faberi); experiment: Test G Pre-Emergence Protocol; conditions: Setaria faberi, pre-emergence, 312 h, evaluated after 13 days; for pest or weed control at 15.625 g/ha: 15.625 g ai/ha; for pest or weed control at 15.625 g/ha / pest or weed control at 250 g/ha: read-out: Foxtail, Giant damage rating (100=total damage to plant; 0=no damage to plant); for pest or weed control at 62.5 g/ha: 62.5 g ai/ha, 100=total damage to plant, 0=no damage to plant, read-out: plant damage rating, Foxtail, Giant; for pest or weed control at 250 g/ha: 250 g ai/ha
Method in brief: as §2

[12] = test system: barnyardgrass (Echinochloa crus-galli); experiment: Test G Pre-Emergence Protocol; conditions: Echinochloa crus-galli, pre-emergence, 312 h, evaluated after 13 days; for pest or weed control at 15.625 g/ha: 15.625 g ai/ha, read-out: Barnyard grass damage rating (100=total damage to plant; 0=no damage to plant); for pest or weed control at 62.5 g/ha: 62.5 g ai/ha, 100=total damage to plant, 0=no damage to plant, read-out: plant damage rating, Barnyardgrass; for pest or weed control at 250 g/ha: 250 g ai/ha, read-out: Barnyardgrass damage rating (100=total damage to plant; 0=no damage to plant)
Method in brief: as §2

| SMILES | pest or weed control at 15.625 g/ha [1] [%] | pest or weed control at 62.5 g/ha [1] [%] | pest or weed control at 250 g/ha [1] [%] | plant injury at 15.625 g/ha [2] [%] | plant injury at 62.5 g/ha [2] [%] | plant injury at 250 g/ha [2] [%] | pest or weed control at 15.625 g/ha [3] [%] | pest or weed control at 62.5 g/ha [3] [%] | pest or weed control at 250 g/ha [3] [%] | pest or weed control at 15.625 g/ha [4] [%] | pest or weed control at 62.5 g/ha [4] [%] | pest or weed control at 250 g/ha [4] [%] | pest or weed control at 15.625 g/ha [5] [%] | pest or weed control at 62.5 g/ha [5] [%] | pest or weed control at 250 g/ha [5] [%] | pest or weed control at 15.625 g/ha [6] [%] | pest or weed control at 62.5 g/ha [6] [%] | pest or weed control at 250 g/ha [6] [%] | pest or weed control at 15.625 g/ha [7] [%] | pest or weed control at 62.5 g/ha [7] [%] | other results |
| --- | --- | --- | --- | --- | --- | --- | --- | --- | --- | --- | --- | --- | --- | --- | --- | --- | --- | --- | --- | --- | --- |
| CN1C[C@@H](c2ccc(C(F)(F)F)cc2)[C@H](C(=O)Nc2cnnc(Cl)c2Cl)C1=O (racemic) [Compound 1567] | 0 | 0 | 0 | 0 | 0 | 0 | 0 | 0 | 0 | 0 | 0 | 0 | 0 | 0 | 0 | 0 | 0 | 10 | 0 | 0 | pest or weed control at 250 g/ha [7]: 0%; plant injury at 15.625 g/ha [8]: 0%; plant injury at 62.5 g/ha [8]: 0%; plant injury at 250 g/ha [8]: 0%; pest or weed control at 15.625 g/ha [9]: 0%; pest or weed control at 62.5 g/ha [9]: 0%; pest or weed control at 250 g/ha [9]: 0%; pest or weed control at 15.625 g/ha [10]: 0%; pest or weed control at 62.5 g/ha [10]: 0%; pest or weed control at 250 g/ha [10]: 0%; pest or weed control at 15.625 g/ha [11]: 0%; pest or weed control at 62.5 g/ha [11]: 0%; pest or weed control at 250 g/ha [11]: 0%; pest or weed control at 15.625 g/ha [12]: 0%; pest or weed control at 62.5 g/ha [12]: 0%; pest or weed control at 250 g/ha [12]: 0% |
| CN1C[C@@H](c2ccc(C(F)(F)F)nc2)[C@H](C(=O)Nc2cccc(F)c2F)C1=O (racemic) [Compound 1458] | 10 | 20 | 30 | 10 | 10 | 10 | 10 | 30 | 30 | 0 | 0 | 0 | 30 | 50 | 60 | 10 | 20 | 20 | 0 | 0 | pest or weed control at 250 g/ha [7]: 20%; plant injury at 15.625 g/ha [8]: 0%; plant injury at 62.5 g/ha [8]: 0%; plant injury at 250 g/ha [8]: 50%; pest or weed control at 15.625 g/ha [9]: 0%; pest or weed control at 62.5 g/ha [9]: 0%; pest or weed control at 250 g/ha [9]: 70%; pest or weed control at 15.625 g/ha [10]: 0%; pest or weed control at 62.5 g/ha [10]: 0%; pest or weed control at 250 g/ha [10]: 30%; pest or weed control at 15.625 g/ha [11]: 20%; pest or weed control at 62.5 g/ha [11]: 80%; pest or weed control at 250 g/ha [11]: 80%; pest or weed control at 15.625 g/ha [12]: 20%; pest or weed control at 62.5 g/ha [12]: 80%; pest or weed control at 250 g/ha [12]: 80% |
